Patent US20260240854A1, “COMBINATIONS OF KRAS INHIBITOR AND ATR INHIBITOR FOR THE TREATMENT OF CANCER” (ASTRAZENECA AB, priority 2023, published 2026)

System: CT26^G12C murine colon carcinoma cells
Assay: Anti-tumor study, CT26^G12C tumors grown subcutaneously in immunocompetent BALB/c mice
Format: in vivo
Conditions: for Survival rate compared to the control group / Tumor return: Example 1, study end day 54
Method: All pathogen-free animals used in the studies below were housed in a controlled, pathogen-free environment with the following conditions: temperature (19-23° C.), humidity (55% 10%), photoperiod (12 h light/dark cycle), and air exchange. Animals were housed in individually vented cages, with food and water provided ad libitum.
Following testing materials were used for the preclinical, in vivo studies below: vehicle (0.5% HPMC/0.1% Tween 80), AZD4625 (0.5% HPMC/0.1% Tween 80), Compound of Formula IV (0.5% HPMC/0.1% Tween 80) and AZD6738 (10% DMSO/40% PG/50% WFI). For the monotherapies, the vehicle and the inhibitors were dosed orally in a volume of 0.05-0.1 mL/10 g. For the combination therapies, AZD4625 or Compound of Formula IV were dosed 4 or 2 hours after the AM dose of AZD6738.
Tumors were measured three times a week by caliper and the volumes were calculated using elliptical formula (pi/6×width×width×length). Animal bodyweight and tumor condition were also recorded for the duration of the study. Subject mice remained on study until tumor size reached 1.5 cm^3 for anti-tumor studies and 0.7 cm^3 for the rechallenge study, clinical signs were observed, or until the study end date.
(§1) For the study, CT26^G12C murine colon carcinoma cells, engineered to express the KRAS^G12C mutation, were grown subcutaneously in BALB/c mice with an intact immune system. To prepare the subject mice, 5×10^5 and 5×10^4 CT26^G12C (G12C clone P5E6) cells were implanted subcutaneously into the right flank of female BALB/c mice (Envigo UK, Strain ID: HSD-162) or female nude-Foxn1nu mice (Envigo UK, Strain ID: HSD-069), respectively. Once a mean volume of approximately 0.2 cm^3 tumor formed, subject mice were randomized into relevant treatment and control groups and treated with vehicle control, AZD4625 or AZD6738 in monotherapy, or in combination therapy for 4 weeks. AZD4625 was dosed daily and AZD6738 was dosed twice daily on a 7 day-on, 7 day-off schedules for the treatment period (FIG. 1A). Tumor growth and bodyweights of animals were monitored during and post-treatment. Subject mice remained on study until tumor size reached 1.5 cm^3, clinical signs were observed, or to the study end date (day 54).
as §1, with “vehicle control, AZD4625, Compound of Formula IV, or AZD6738” for “vehicle control, AZD4625 or AZD6738”, “monotherapy, or AZD4625 and AZD6738 or Compound of Formula IV and AZD6738 in combination” for “monotherapy, or in combination”, “weeks. AZD4625 and Compound of Formula IV were dosed daily” for “weeks. AZD4625 was dosed daily”, “period (FIG. 2A). Tumor growth” for “period (FIG. 1A). Tumor growth”, “study end date. Mice in the AZD4625 monotherapy and combination groups were monitored up to 65 days post-implant while mice in the Compound of Formula IV monotherapy and combination groups were monitored up to 119 days post-implant.” for “study end date (day 54).”
CT26^G12C murine colon carcinoma cells were grown subcutaneously in BALB/c mice with an intact immune system as described in Examples 1 and 2. […] Tumor growth and body weights of animals were monitored during and post-treatment. Subject mice remained on study until tumor size reached 1.5 cm^3, clinical signs were observed, or to the study end.

[1] = Example 1, 4 weeks oral treatment, compared to control group, FIG. 1B
[2] = Example 5, 4 weeks treatment, compared to vehicle or to KRAS^G12C inhibitor monotherapy, FIG. 5A
[3] = Example 2, 4 weeks oral treatment, FIG. 2B

SMILES	Tumor growth response [1]	Survival rate compared to the control group	Tumor return	Tumor growth response [2]	Tumor growth response [3]	Tumors returned after drug cessation (Example 2, monitored up to 119 days post-implant)	Tumor return after drug cessation (Example 5)	Survival rates (Example 5, FIG. 5B)
C[C@@H]1COCCN1c1cc(C2([S@](C)(=N)=O)CC2)nc(-c2ccnc3[nH]ccc23)n1 [AZD6738, 4-{4-[(3R)-3-methylmorpholin-4-yl]-6-[1-((R)—S-methylsulfonimidoyl)cyclopropyl]pyrimidin-2-yl}-1H-pyrrolo[2,3-b]pyridine]	delayed tumor growth	extended survival rate	most tumors ultimately returned	no or weak activity				
C=CC(=O)N1C[C@@H]2CCOc3c(Cl)c(-c4c(O)cccc4F)c(F)c4ncnc(c34)N2C[C@H]1C [AZD4625, 1-[(6aS,9R)-3-chloro-1-fluoro-2-(2-fluoro-6-hydroxyphenyl)-9-methyl-5,6,6a,7,9,10-hexahydro-8H-pyrazino[1′,2′:5,6][1,5]oxazocino[4,3,2-de]quinazolin-8-yl]prop-2-en-1-one]	delayed tumor growth	extended survival rate	most tumors ultimately returned		tumor regression			
C=CC(=O)N1CCN2Cc3cc(C#CC)c(-c4c(O)cccc4Cl)c(F)c3OC[C@H]2C1 [Compound of Formula IV, 1-[(12aR)-9-(2-chloro-6-hydroxyphenyl)-10-fluoro-8-(prop-1-yn-1-yl)-3,4,12,12a-tetrahydro-6H-pyrazino[2,1-c][1,4]benzoxazepin-2(1H)-yl]prop-2-en-1-one]					tumor regression	8 out of 9		
C=CC(=O)N1CCN(c2nc(=O)n(-c3c(C)ccnc3C(C)C)c3nc(-c4c(O)cccc4F)c(F)cc23)[C@@H](C)C1 (atropisomer, axis not shown) [sotorasib, reference compound]				initial tumor growth delay			most tumors returning after drug cessation	increased survival rates
